The values below come from ChEMBL document CHEMBL3120103, “CK2 inhibitor CX4945 induces sequential inactivation of proteins in the signaling pathways related with cell migration and suppresses metastasis of A549 human lung cancer cells” (Bioorg Med Chem Lett, 2013).

The structures appear in SMILES notation. Active and inactive are the calls of the source. No cut-off for these calls is given here.

Series [1] concerns A549. Nature of the series: Reduction in MMP9 expression in human A549 cells at 1 to 10 uM after 24 hrs by Western blot method. It counts as functional, cell-based. (A western blot detects proteins with antibodies after separation by electrophoresis.)
The subject of series [2] is NCI-H1299. The series is described as follows: Antimigratory activity against human H1299 cells after 24 hrs by wound-healing assay. It counts as functional, cell-based.
Series [3] relates to A549. The series is described as follows: Antiinvasive activity against human A549 cells after 3 hrs by Boyden chamber invasion assay. It counts as functional, cell-based.
Series [4] concerns A549. The series is described as follows: Antimigratory activity against human A549 cells after 24 hrs by wound-healing assay. It counts as functional, cell-based.
The subject of series [5] is A549. Nature of the series: Cytotoxicity against human A549 cells assessed as viable cells at 1 to 30 uM after 24 hrs by LDH assay. It counts as cell-based. To be noted: a549, 24 h.
The nature of series [6]: Cytotoxicity against human A549 cells assessed as viable cells at 1 to 30 uM after 3 hrs by CCK8 assay. It counts as cell-based. To be noted: read-out: Activity.
Series [7] relates to A549. The series is described as follows: Reduction in MMP2 expression in human A549 cells at 1 to 10 uM after 24 hrs by Western blot method. It counts as functional, cell-based.
Series [8] has as its system NCI-H1299. Nature of the series: Antiinvasive activity against human H1299 cells after 3 hrs by Boyden chamber invasion assay. It counts as functional, cell-based.
A short description of series [9]: Cytotoxicity against human A549 cells assessed as viable cells at 1 to 30 uM after 24 hrs by CCK8 assay. It counts as cell-based. To be noted: read-out: Activity. A general note: Tetrazolium assays rely on reduction of a dye to a coloured formazan, in cell work by metabolically active cells.

`O=C(O)c1ccc2c(c1)nc(Nc1cccc(Cl)c1)c1ccncc12` [SILMITASERTIB]: the result with A549 [1] and in the series with A549 [7] was inactive. Moreover, the Activity result in the series with NCI-H1299 [2] was “Dose-dependent effect”; in the series with A549 [3], “Dose-dependent effect”; in the series on A549 [4] it was “Dose-dependent effect”; with A549 [5], “Non-toxic”; with NCI-H1299 [8], “Dose-dependent effect”. The viability at 3 h, up to 30 µM in series [6] is > 70%. Further, the viability at 24 h, up to 30 µM in series [9] was > 70%.
